Experiment [1] deals with Gamma-aminobutyric acid receptor subunit alpha-1 (Rattus norvegicus, UniProt P62813).
The target in experiment [2] is Delta-type opioid receptor (Homo sapiens, UniProt P41143).
Experiment [3] deals with Growth hormone secretagogue receptor type 1 (Homo sapiens, UniProt Q92847).
Experiment [4] addresses T1, Cholecystokinin receptor type A (Homo sapiens, UniProt P32238).
T1 sequence (P32238 whole entry): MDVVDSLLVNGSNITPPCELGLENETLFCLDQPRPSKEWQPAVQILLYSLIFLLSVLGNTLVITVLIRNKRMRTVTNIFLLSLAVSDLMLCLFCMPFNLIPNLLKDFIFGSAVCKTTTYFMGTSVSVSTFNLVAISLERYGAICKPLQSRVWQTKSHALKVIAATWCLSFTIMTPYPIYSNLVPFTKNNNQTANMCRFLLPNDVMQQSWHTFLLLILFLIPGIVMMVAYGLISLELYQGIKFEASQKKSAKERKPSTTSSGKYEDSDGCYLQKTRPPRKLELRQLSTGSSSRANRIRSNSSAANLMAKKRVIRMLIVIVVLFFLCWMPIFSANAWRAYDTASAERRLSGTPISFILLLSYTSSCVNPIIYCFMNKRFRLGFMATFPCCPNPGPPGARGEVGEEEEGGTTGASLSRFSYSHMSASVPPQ

The target of experiment [5] is T2, Alpha-2A adrenergic receptor (Homo sapiens, UniProt P08913).
T2 sequence (P08913 whole entry): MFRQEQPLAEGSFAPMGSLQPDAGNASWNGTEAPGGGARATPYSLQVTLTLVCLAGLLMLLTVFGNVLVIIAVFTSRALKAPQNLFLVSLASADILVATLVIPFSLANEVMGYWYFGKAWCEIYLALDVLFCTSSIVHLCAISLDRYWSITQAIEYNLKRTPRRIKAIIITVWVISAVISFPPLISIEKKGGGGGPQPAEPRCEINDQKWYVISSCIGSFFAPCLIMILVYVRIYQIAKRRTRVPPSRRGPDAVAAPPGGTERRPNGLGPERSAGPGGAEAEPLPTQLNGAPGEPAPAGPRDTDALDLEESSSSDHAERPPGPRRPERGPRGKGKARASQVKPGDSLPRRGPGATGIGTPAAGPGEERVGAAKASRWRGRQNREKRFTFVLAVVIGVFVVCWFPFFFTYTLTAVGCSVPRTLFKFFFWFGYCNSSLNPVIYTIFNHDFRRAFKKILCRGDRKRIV
The class given is functional, cell-based.

Experiment [6] has as its target 5-hydroxytryptamine receptor 2B (Homo sapiens, UniProt P41595). It counts as functional, cell-based.
The target of experiment [7] is T3, Muscarinic acetylcholine receptor M2 (Homo sapiens, UniProt P08172).
T3 sequence (P08172 whole entry): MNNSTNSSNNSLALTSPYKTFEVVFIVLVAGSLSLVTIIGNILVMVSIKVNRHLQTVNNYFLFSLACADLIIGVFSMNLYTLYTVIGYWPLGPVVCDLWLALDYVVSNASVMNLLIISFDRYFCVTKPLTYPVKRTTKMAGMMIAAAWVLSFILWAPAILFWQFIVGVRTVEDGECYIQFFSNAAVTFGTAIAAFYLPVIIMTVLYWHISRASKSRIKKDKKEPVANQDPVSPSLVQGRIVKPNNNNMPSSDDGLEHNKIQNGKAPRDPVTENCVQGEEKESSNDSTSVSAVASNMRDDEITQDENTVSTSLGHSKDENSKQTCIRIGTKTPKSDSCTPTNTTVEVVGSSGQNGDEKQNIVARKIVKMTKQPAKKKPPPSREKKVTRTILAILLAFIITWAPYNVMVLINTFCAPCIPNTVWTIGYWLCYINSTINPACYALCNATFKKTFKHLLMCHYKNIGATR
The class given is functional, cell-based.

For experiment [8], the target named is T3, Muscarinic acetylcholine receptor M2. The class given is functional, cell-based. This is another data set of the same source.
Experiment [9] deals with Voltage-gated inwardly rectifying potassium channel KCNH2 (Homo sapiens, UniProt Q12809). The class given is functional.
Voltage-gated inwardly rectifying potassium channel KCNH2, sequence (Q12809 whole entry): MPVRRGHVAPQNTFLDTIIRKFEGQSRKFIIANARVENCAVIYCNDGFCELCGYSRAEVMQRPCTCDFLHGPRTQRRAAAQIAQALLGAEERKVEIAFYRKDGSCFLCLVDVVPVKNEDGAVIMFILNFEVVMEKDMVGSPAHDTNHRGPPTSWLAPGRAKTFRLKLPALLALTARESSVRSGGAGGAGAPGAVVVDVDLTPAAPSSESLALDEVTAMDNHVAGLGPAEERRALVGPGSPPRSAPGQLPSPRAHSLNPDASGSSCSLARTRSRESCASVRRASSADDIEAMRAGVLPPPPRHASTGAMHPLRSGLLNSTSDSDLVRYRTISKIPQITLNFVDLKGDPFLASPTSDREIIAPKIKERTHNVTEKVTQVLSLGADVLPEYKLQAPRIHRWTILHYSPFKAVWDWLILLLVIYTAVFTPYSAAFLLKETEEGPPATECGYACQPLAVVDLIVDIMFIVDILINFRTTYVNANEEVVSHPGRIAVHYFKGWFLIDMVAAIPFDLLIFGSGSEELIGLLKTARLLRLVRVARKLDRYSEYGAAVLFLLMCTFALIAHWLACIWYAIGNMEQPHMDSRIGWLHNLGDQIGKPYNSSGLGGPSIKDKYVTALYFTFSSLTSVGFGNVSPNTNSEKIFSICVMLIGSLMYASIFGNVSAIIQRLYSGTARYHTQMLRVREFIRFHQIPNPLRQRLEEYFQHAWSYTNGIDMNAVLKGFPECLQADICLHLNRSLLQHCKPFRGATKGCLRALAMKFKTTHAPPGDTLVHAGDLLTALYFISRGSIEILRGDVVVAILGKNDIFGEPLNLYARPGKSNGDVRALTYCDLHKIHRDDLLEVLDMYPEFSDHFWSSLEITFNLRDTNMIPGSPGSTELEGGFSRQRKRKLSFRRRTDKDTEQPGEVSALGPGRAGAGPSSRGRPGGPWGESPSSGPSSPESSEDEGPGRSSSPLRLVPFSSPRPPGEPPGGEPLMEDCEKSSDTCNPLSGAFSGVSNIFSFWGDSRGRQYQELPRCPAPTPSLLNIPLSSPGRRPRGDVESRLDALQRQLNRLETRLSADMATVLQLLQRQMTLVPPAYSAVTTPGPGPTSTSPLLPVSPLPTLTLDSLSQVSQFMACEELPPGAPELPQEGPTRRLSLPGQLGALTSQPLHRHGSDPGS
For experiment [10], the target named is Vasopressin V2 receptor (Homo sapiens, UniProt P30518).
Vasopressin V2 receptor, sequence (P30518 whole entry): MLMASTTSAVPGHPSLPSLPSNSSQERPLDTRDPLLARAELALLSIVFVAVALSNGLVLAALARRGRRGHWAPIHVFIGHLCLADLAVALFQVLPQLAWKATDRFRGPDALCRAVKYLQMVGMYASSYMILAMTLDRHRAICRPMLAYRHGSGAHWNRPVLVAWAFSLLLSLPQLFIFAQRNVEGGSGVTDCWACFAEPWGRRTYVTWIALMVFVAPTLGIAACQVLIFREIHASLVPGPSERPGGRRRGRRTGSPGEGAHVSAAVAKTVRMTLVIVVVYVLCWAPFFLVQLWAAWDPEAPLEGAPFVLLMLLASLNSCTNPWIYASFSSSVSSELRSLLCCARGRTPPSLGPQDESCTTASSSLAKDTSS
Experiment [11] has as its target Glutamate receptor ionotropic, NMDA 1 (Rattus norvegicus, UniProt P35439).
Experiment [12] has as its target 3',5'-cyclic-AMP phosphodiesterase 4D (Homo sapiens, UniProt Q08499). It counts as functional.
Experiment [13] has as its target T4, Equilibrative nucleoside transporter 1 (Homo sapiens, UniProt Q99808).
T4 sequence (Q99808 whole entry): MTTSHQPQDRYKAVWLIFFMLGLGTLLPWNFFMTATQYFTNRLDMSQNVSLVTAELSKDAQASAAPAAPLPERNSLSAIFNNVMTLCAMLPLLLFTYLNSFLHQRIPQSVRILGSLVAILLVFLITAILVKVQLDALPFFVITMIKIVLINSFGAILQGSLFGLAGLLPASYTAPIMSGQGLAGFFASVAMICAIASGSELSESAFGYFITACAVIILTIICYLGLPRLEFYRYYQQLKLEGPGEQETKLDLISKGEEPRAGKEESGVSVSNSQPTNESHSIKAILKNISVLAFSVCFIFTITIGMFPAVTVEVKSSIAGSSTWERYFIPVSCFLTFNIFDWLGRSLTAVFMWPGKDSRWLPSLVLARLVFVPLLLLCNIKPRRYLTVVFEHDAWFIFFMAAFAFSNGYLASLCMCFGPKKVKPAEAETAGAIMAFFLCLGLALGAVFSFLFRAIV

Experiment [14] deals with Beta-1 adrenergic receptor (Homo sapiens, UniProt P08588). It counts as functional.
Beta-1 adrenergic receptor, sequence (P08588 whole entry): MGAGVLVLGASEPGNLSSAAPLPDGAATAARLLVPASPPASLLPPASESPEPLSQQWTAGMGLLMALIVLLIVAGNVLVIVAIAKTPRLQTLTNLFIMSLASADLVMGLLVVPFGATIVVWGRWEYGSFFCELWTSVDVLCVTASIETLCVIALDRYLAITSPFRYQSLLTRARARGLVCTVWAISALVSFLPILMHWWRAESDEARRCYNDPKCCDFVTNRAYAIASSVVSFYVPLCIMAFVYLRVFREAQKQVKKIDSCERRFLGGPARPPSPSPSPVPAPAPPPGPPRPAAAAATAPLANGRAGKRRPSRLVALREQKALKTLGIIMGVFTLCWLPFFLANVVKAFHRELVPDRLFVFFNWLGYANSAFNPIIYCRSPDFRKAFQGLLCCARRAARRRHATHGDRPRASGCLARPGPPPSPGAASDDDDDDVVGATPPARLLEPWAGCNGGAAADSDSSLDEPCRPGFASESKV

Structures are written as SMILES.
Also: assay procedure not described here.

3',5'-cyclic-AMP phosphodiesterase 4D, sequence (Q08499 whole entry): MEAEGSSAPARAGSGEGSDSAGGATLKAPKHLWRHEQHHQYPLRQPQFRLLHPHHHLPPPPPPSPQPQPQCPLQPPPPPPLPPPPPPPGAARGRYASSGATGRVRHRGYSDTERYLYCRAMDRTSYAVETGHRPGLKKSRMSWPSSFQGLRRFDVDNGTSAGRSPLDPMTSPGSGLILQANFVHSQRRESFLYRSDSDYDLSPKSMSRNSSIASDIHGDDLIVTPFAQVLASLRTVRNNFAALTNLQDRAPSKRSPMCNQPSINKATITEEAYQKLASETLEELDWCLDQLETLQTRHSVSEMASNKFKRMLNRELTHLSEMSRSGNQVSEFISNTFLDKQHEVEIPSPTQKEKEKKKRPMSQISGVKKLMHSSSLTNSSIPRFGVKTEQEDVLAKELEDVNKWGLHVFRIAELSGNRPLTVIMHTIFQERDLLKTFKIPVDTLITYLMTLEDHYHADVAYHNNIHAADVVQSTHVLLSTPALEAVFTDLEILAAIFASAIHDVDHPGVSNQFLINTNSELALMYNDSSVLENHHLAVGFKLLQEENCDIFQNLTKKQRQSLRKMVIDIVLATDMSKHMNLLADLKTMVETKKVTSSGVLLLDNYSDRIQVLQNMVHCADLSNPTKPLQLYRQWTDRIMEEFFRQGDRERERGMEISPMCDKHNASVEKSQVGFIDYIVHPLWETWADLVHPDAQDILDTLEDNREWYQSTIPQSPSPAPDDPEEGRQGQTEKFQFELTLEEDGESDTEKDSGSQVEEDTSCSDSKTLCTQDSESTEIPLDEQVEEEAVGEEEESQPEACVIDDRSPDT
Delta-type opioid receptor, sequence (P41143 whole entry): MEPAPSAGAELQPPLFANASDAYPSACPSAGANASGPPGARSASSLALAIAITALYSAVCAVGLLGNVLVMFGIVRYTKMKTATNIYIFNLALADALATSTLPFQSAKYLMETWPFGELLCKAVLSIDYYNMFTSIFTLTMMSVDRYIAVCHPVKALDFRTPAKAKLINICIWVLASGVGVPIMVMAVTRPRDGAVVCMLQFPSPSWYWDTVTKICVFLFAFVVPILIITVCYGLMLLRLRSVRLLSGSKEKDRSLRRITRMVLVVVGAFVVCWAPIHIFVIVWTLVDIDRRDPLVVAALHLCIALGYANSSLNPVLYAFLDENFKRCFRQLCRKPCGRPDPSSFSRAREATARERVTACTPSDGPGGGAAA
5-hydroxytryptamine receptor 2B, sequence (P41595 whole entry): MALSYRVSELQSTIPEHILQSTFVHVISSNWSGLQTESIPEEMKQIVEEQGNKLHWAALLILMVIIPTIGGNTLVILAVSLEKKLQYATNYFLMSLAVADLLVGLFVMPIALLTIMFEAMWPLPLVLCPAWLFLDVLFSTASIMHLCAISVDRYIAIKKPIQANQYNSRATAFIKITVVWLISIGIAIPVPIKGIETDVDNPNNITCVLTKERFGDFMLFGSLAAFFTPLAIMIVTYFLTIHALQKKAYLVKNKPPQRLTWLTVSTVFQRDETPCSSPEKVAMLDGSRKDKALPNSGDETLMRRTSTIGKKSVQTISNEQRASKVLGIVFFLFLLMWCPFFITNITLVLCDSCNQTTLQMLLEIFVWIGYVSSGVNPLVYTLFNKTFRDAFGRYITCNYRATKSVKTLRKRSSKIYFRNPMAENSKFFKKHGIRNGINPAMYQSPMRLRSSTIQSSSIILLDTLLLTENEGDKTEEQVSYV
Gamma-aminobutyric acid receptor subunit alpha-1, sequence (P62813 whole entry): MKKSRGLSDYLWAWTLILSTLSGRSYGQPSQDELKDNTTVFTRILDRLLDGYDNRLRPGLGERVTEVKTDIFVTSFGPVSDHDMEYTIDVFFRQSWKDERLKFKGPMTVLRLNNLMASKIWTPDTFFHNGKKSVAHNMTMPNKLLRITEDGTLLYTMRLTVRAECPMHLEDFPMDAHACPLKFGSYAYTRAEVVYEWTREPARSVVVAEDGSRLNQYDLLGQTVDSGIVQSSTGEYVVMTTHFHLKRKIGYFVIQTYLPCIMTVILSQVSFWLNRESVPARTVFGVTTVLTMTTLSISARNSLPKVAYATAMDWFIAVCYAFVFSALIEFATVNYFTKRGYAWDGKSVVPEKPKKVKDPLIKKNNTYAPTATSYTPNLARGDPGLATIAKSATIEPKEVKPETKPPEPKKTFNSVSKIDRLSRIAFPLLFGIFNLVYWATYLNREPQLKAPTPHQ
Growth hormone secretagogue receptor type 1, sequence (Q92847 whole entry): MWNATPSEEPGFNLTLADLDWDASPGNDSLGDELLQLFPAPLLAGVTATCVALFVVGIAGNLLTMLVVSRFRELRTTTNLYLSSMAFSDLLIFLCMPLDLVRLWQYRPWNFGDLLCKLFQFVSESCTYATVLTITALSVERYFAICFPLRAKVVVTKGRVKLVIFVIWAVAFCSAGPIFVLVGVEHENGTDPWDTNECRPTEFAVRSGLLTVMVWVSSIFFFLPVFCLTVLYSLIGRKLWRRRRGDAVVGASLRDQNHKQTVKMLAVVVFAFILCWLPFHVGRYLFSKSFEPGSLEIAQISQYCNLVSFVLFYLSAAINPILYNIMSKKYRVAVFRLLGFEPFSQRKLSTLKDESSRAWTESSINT

With `CC(C)N(CCCCOCC(=O)O)c1cnc(-c2ccccc2)c(-c2ccccc2)n1`, the AC50 in experiment [1] was above 30 µM; in [2], above 30 µM; in experiment [3] it was above 30 µM; in experiment [4] it was above 10 µM; in [5], above 30 µM; in [6], above 30 µM. For the same compound, the AC50 in [7] was above 30 µM; in experiment [8], above 30 µM; in experiment [9], above 30 µM; in experiment [10], above 30 µM; in experiment [11], above 30 µM; in experiment [12], 14.3 µM. Moreover, the AC50 in experiment [13] and in experiment [14] was above 30 µM throughout.
`CC(=O)c1ccc(S(=O)(=O)NC(=O)NC2CCCCC2)cc1` [ACETOHEXAMIDE]: the AC50 in experiment [1] was above 10 µM; in experiment [2], above 30 µM; in experiment [3], above 10 µM; in [4] it was above 10 µM; in experiment [5], above 30 µM; in experiment [6] it was above 30 µM. Moreover, the AC50 in experiment [7] was above 10 µM; in [8], above 10 µM; in experiment [9] it was above 30 µM; in experiment [10], above 10 µM; in experiment [11] it was above 10 µM; in experiment [12] it was above 30 µM. Also, the AC50 in experiment [13] and in experiment [14] was above 10 µM in each case.
Consider `COc1cc(C)c(/C=C/C(C)=C/C=C/C(C)=C/C(=O)O)c(C)c1C` [ACITRETIN], for which the AC50 in [1] was above 10 µM; in [2], above 30 µM; in experiment [3] it was above 10 µM; in experiment [4], above 10 µM; in experiment [5], above 10 µM; in [6], above 10 µM. Also, the AC50 in experiment [7] was above 10 µM; in experiment [8] it was above 10 µM; in [9] it was above 30 µM; in [10] it was above 10 µM; in experiment [11] it was above 10 µM; in experiment [12], above 30 µM. In addition, the AC50 in experiment [13] and in experiment [14] was above 10 µM each time.
On to `CCC1(CCC(C)C)C(=O)NC(=O)NC1=O` [AMOBARBITAL], for which the AC50 in [1] was above 10 µM; in experiment [2], above 30 µM; in [3] it was above 10 µM; in experiment [4] it was above 10 µM; in experiment [5], above 10 µM; in [6], above 10 µM. For the same compound, the AC50 was above 10 µM in [7]; above 10 µM in experiment [8]; above 30 µM in [9]; above 10 µM in experiment [10]; above 10 µM in [11]; above 30 µM in experiment [12]. Also, the AC50 in experiment [13] and in experiment [14] was above 10 µM throughout.
As for `COc1ccc(C2C(=O)c3ccccc3C2=O)cc1` [ANISINDIONE], the AC50 was above 10 µM in experiment [1]; above 30 µM in experiment [2]; above 10 µM in experiment [3]; above 10 µM in experiment [4]; above 10 µM in experiment [5]; above 10 µM in experiment [6]. Further, the AC50 in [7] was above 10 µM; in experiment [8], above 10 µM; in experiment [9], above 30 µM; in experiment [10] it was above 10 µM; in experiment [11], above 10 µM; in experiment [12] it was above 30 µM. In addition, the AC50 in experiment [13] and in [14] was above 10 µM each time.
As to `Cc1cc(=O)n(-c2ccccc2)n1C` [ANTIPYRINE], the AC50 in experiment [1] was above 10 µM; in experiment [2], above 30 µM; in experiment [3], above 30 µM; in [4] it was above 30 µM; in experiment [5] it was above 10 µM; in [6], above 10 µM. Also, the AC50 is above 10 µM in experiment [7]; above 10 µM in [8]; above 30 µM in [9]; above 30 µM in [10]; above 10 µM in experiment [11]; above 30 µM in experiment [12]. Besides, the AC50 in [13] was above 30 µM; in experiment [14] it was above 10 µM.
Turning to `O=C(O)CCNC(=O)c1ccc(/N=N/c2ccc(O)c(C(=O)O)c2)cc1` [BALSALAZIDE], the concentration at half-maximal activity (AC50) in experiment [1], in experiment [2], in experiment [3], in experiment [4], in [5] and in experiment [6] was above 30 µM throughout. Also, the AC50 in [7] is above 30 µM; in [8], above 30 µM; in [9], above 30 µM; in experiment [10], 36.9 µM; in experiment [11] it was above 30 µM; in [12] it was above 30 µM. Also, the AC50 was 30 µM in experiment [13] and above 30 µM in experiment [14].
On to `O=C(O)c1ccc(NC(=O)[C@H](Cc2ccc(O)cc2)NC(=O)c2ccccc2)cc1` [BENTIROMIDE], for which the AC50 in experiment [1] is above 10 µM; in [2], above 30 µM; in [3], above 10 µM; in experiment [4], above 10 µM; in experiment [5], above 10 µM; in [6] it was above 10 µM. In addition, the AC50 in experiment [7] is above 10 µM; in experiment [8], above 10 µM; in experiment [9], above 30 µM; in experiment [10] it was above 10 µM; in experiment [11] it was above 10 µM; in [12], above 30 µM. The AC50 in experiment [13] and in experiment [14] was above 10 µM throughout.
`NS(=O)(=O)c1cc2c(cc1Cl)N=C(CSCc1ccccc1)NS2(=O)=O` [BENZTHIAZIDE]: the AC50 was above 10 µM in experiment [1]; above 30 µM in [2]; above 10 µM in experiment [3]; above 10 µM in experiment [4]; 1.7 µM in experiment [5]; above 10 µM in experiment [6]. The AC50 was above 10 µM in experiment [7]; above 10 µM in experiment [8]; above 30 µM in experiment [9]; above 10 µM in experiment [10]; above 10 µM in experiment [11]; above 30 µM in experiment [12]. The AC50 in experiment [13] and in [14] was above 10 µM each time.
Consider `Clc1ccc(CCC(Cn2ccnc2)Sc2c(Cl)cccc2Cl)cc1` (stereo not given) [BUTOCONAZOLE], for which the AC50 in experiment [1], in [2], in experiment [3], in experiment [4], in [5] and in experiment [6] was above 30 µM throughout. For the same compound, the AC50 in [7] is above 30 µM; in experiment [8] it was above 30 µM; in experiment [9], 5.9 µM; in experiment [10], above 30 µM; in [11] it was above 30 µM; in [12], 11 µM. Moreover, the AC50 in experiment [13] and in experiment [14] was above 30 µM throughout.
